Laboratory results taken from US7173024B2, “Compounds having prolyl oligopeptidase inhibitory activity, methods for their preparation and their use” (Orion Corporation, priority 2001, dated 2007).

Biological target: T1, pig brain prolyl oligopeptidase (Sus scrofa, UniProt P23687)
T1 construct: The brains were homogenized with a glass-teflon homogenisator; from tissue; host or cells: pig brain (excluding cerebellum and most of the brain stem), 10000 g supernatant of the homogenate
Assay: Inhibition of prolyl oligopeptidase activity of pig brain (Suc-Gly-Pro-AMC, fluorometric)
Type: biochemical
Conditions: pig brain homogenate supernatant, 30° C., pH 7.0
Experimental: The whole pig brains, excluding cerebellum and most of the brain stem, of three pigs were placed in liquid nitrogen within 30 min from killing and stored at −80° C. until homogenized. The brains were homogenized with a glass-teflon homogenisator in 3 volumes (w/v) of ice-cold 0.1 M sodium-potassium phosphate buffer (pH 7.0) and the homogenates were centrifuged for 20 min at 4° C. at 10000 g. The supernatants were collected, pooled and stored in small aliquots at −80° C. until used. The supernatant was thawn in ice just before activity assay and diluted in a ratio 1:2 with homogenisation buffer (=enzyme preparation).
In the microplate assay procedure, 10 μl of enzyme preparation was preincubated with 460 μl of 0.1 M sodium-potassium phosphate buffer (pH 7.0) and 5 μl of a solution of novel compound dissolved in DMSO and diluted with 0.1 M sodium-potassium phosphate buffer at 30° C. for 30 min. The controls contained 10 μl enzyme preparation and 465 μl of 0.1 M sodium-potassium phosphate buffer (pH 7.0). The reaction was initiated by adding 25 μl of 4 mM Suc-Gly-Pro-AMC (AMC: 7-amido-4-methylcoumarin) dissolved in 0.1 M sodium-potassium phosphate buffer (pH 7.0), and the mixture was incubated at 30° C. for 60 min. The reaction was terminated by adding 500 μl of 1 M sodium acetate buffer (pH 4.2).
Formation of 7-amido-4-methylcoumarin was determined fluorometrically with microplate fluorescence reader (excitation at 360 nm and emission at 460 nm). The final concentration of novel compounds in the assay mixture varied from 10^−12 M to 10^−4 M.
The prolyl oligopeptidase activity was calculated with the following formula in the presence of various concentrations of novel compounds. To reveal the inhibitory potency of the novel compound, activities (% of control) were plotted against the log concentration of the compound, and the IC50 value was determined by non-linear regression utilizing GraphPad Prism software.
Activity (% of control)=a/b×100, where • a=flourescence intensity in the presence of a novel compound • […] a novel compound (control)

T1 sequence (P23687 whole entry): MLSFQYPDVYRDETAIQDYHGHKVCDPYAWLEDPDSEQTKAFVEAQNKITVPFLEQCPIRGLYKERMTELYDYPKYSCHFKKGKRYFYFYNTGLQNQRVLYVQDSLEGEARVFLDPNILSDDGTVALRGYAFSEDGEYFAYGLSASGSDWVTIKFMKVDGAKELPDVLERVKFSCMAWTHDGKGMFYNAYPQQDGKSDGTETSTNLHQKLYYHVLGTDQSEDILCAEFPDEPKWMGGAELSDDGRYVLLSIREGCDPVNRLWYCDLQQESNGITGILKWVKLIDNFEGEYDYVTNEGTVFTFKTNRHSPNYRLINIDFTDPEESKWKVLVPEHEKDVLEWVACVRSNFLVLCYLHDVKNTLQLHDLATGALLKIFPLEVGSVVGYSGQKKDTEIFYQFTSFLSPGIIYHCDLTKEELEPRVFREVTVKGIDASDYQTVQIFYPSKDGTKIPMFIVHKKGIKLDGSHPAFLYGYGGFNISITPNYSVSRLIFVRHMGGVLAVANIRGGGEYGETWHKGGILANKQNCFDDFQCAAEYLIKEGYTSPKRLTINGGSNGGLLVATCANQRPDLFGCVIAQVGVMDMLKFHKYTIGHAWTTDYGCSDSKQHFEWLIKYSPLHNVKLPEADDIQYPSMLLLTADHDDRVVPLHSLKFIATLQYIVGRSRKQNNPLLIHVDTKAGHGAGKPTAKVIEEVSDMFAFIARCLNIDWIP

## O=C([C@@H]1CCCN1C(=O)c1cccc(C(=O)N2CCC[C@H]2C(=O)N2CCCC2)c1)N1CCCC1 [Example 11, Isophthalic acid di-(L-prolyl-pyrrolidine)amide]
  IC50: 26 nM

## N#C[C@@H]1CCCN1C(=O)[C@@H]1CCCN1C(=O)CCC(=O)N1CCCCCC1 [Example 18, Succinic acid hexamethyleneimine L-prolyl-2(S)-cyanopyrrolidine amide]
  IC50: 0.8 nM

## N#C[C@@H]1CCCN1C(=O)[C@@H]1CCCN1C(=O)CCC(=O)N1CCC[C@H]1C(=O)N1CCC[C@H]1C#N [Example 21, Succinic acid di-(L-prolyl-2(S)-cyanopyrrolidine)amide]
  IC50: 0.8 nM

## O=C(CO)[C@@H]1CCCN1C(=O)[C@@H]1CCCN1C(=O)c1cccc(C(=O)N2CCC[C@H]2C(=O)N2CCCC2)c1 [Example 22, Isophthalic acid L-prolyl-2(S)-(hydroxyacetyl)pyrrolidine L-prolyl-pyrrolidine amide]
  IC50: 0.4 nM

## O=C(C1CCCC1)[C@@H]1CCCN1C(=O)c1cccc(C(=O)N2CCC[C@H]2C(=O)C2CCCC2)c1 [Example 41, Isophthalic acid di-(2(S)-(cyclopentanecarbonyl)pyrrolidine)amide]
  IC50: 78 nM

## C[C@H](NC(=O)c1cccc(C(=O)N[C@@H](C)C(=O)N2CCCC2)c1)C(=O)N1CCCC1 [Example 46, Isophthalic acid di-(L-alanyl-pyrrolidine)amide]
  IC50: 87 nM

## CSCC[C@H](NC(=O)c1cccc(C(=O)N[C@@H](CCSC)C(=O)N2CCCC2)c1)C(=O)N1CCCC1 [Example 47, Isophthalic acid di-(L-methionyl-pyrrolidine)amide]
  IC50: 110 nM

## O=C(CCCC(=O)N1CCC[C@H]1C(=O)N1CCCC1)N1CCCCCC1 [Example 48, Glutaric acid hexamethyleneimine L-prolyl-pyrrolidine amide]
  IC50: 28 nM

## O=C(NC(Cc1ccccc1)C(=O)N1CCCC1)c1cccc(C(=O)NC(Cc2ccccc2)C(=O)N2CCCC2)c1 [Example 50, Isophtalic acid di-(L-phenylalanyl-pyrrolidine)amide]
  IC50: 79 nM
